The source made the active and inactive calls. How the calls were made is not given here.
Test system: CCRIS mutagenicity, Ames/micronucleus/aberration tests
Assay: CCRIS mutagenicity studies
[1] = Test System: AMES SALMONELLA TYPHIMURIUM, Strain/Indicator: TA98, Metabolic Activation: NONE, Method: STANDARD PLATE
[2] = Test System: AMES SALMONELLA TYPHIMURIUM, Strain/Indicator: TA100, Metabolic Activation: NONE, Method: STANDARD PLATE

Which results are given for `Cc1cc2ncccc2c2nc(N)n(C)c12`?
mutagenic call (End Point: IN VITRO MICRONUCLEUS, Test System: CHL/IU CELLS, Metabolic Activation: RAT, LIVER, S-9, PHENOBARBITAL AND 5,6-BENZOFLAVONE): active; positive; mutagenic call (Test System: AMES SALMONELLA TYPHIMURIUM, Strain/Indicator: TA98(1,8-DNP6), Metabolic Activation: RAT, LIVER, S-9, Method: STANDARD PLATE): inactive; negative; mutagenic call (Test System: AMES SALMONELLA TYPHIMURIUM, Strain/Indicator: TA98, Metabolic Activation: HAMSTER, LIVER, HEPATOCYTES, Method: STANDARD PLATE): active; positive; mutagenic call (Test System: AMES SALMONELLA TYPHIMURIUM, Strain/Indicator: TA98, Metabolic Activation: HUMAN, BLOOD, CYTOSOL, Method: PREINCUBATION): active; positive; mutagenic call (Test System: AMES SALMONELLA TYPHIMURIUM, Strain/Indicator: TA98, Metabolic Activation: NONE, Method: PREINCUBATION): inactive; negative; mutagenic call [1]: inactive; negative; mutagenic call (Test System: AMES SALMONELLA TYPHIMURIUM, Strain/Indicator: TA98, Metabolic Activation: RAT, LIVER, HEPATOCYTES, AROCLOR 1254, Method: PREINCUBATION): active; positive; mutagenic call (Test System: AMES SALMONELLA TYPHIMURIUM, Strain/Indicator: TA98, Metabolic Activation: RAT, LIVER, HEPATOCYTES, Method: PREINCUBATION): active; positive; mutagenic call (Test System: AMES SALMONELLA TYPHIMURIUM, Strain/Indicator: TA98, Metabolic Activation: RAT, LIVER, HEPATOCYTES, Method: STANDARD PLATE): active; positive; mutagenic call (Test System: AMES SALMONELLA TYPHIMURIUM, Strain/Indicator: TA98, Metabolic Activation: RAT, LIVER, S-9, AROCLOR 1254, Method: PREINCUBATION): active; positive; mutagenic call (Test System: AMES SALMONELLA TYPHIMURIUM, Strain/Indicator: TA98, Metabolic Activation: RAT, LIVER, S-9, N-BENZYLIMIDAZOLE, Method: PREINCUBATION): active; positive; mutagenic call (Test System: AMES SALMONELLA TYPHIMURIUM, Strain/Indicator: TA98, Metabolic Activation: RAT, LIVER, S-9, Method: STANDARD PLATE): active; positive; mutagenic call (Test System: AMES SALMONELLA TYPHIMURIUM, Strain/Indicator: TA98, Metabolic Activation: S-9, Method: STANDARD PLATE): active; positive; mutagenic call (Test System: AMES SALMONELLA TYPHIMURIUM, Strain/Indicator: TA98, Method: STANDARD PLATE): active; positive; mutagenic call (Test System: AMES SALMONELLA TYPHIMURIUM, Strain/Indicator: TA100, Metabolic Activation: NONE, Method: PREINCUBATION): inactive; negative; mutagenic call [2]: inactive; negative; mutagenic call (Test System: AMES SALMONELLA TYPHIMURIUM, Strain/Indicator: TA100, Metabolic Activation: RAT, LIVER, S-9, AROCLOR 1254, Method: PREINCUBATION): active; positive; mutagenic call (Test System: AMES SALMONELLA TYPHIMURIUM, Strain/Indicator: TA100, Metabolic Activation: RAT, LIVER, S=9, AROCLOR 1254, Method: PREINCUBATION): active; positive; mutagenic call (Test System: AMES SALMONELLA TYPHIMURIUM, Strain/Indicator: TA100, Metabolic Activation: S-9, Method: STANDARD PLATE): active; positive; mutagenic call (Test System: CHINESE HAMSTER V-79, Strain/Indicator: V-79/6-THIOGUANINE, Metabolic Activation: HAMSTER, PANCREAS DUCT, EPITHELIAL CELLS): active; positive; mutagenic call (Test System: CHINESE HAMSTER V-79, Strain/Indicator: V-79/6-THIOGUANINE, Metabolic Activation: HUMAN, PANCREAS DUCT, EPITHELIAL CELLS): active; positive; mutagenic call (Test System: CHINESE HAMSTER V-79, Strain/Indicator: V-79/6-THIOGUANINE, Metabolic Activation: RAT, LIVER, HEPATOCYTES, AROCLOR 1254): active; positive; mutagenic call (Test System: UDS HAMSTER HEPATOCYTES, Strain/Indicator: THY INCORP, Metabolic Activation: NONE, Method: LIQUID SCINTILLATION COUNTING): active; positive; mutagenic call (Test System: UDS HUMAN HEPATOCYTES, Strain/Indicator: THY INCORP, Metabolic Activation: NONE, Method: AUTORADIOGRAPHY): active; positive; mutagenic call (Test System: UDS MOUSE HEPATOCYTES, Strain/Indicator: THY INCORP, Metabolic Activation: NONE, Method: AUTORADIOGRAPHY): active; positive; mutagenic call (Test System: UDS RAT HEPATOCYTES, Strain/Indicator: THY INCORP, Metabolic Activation: NONE, Method: AUTORADIOGRAPHY): active; positive; mutagenic call (Test System: UDS RAT HEPATOCYTES, Strain/Indicator: THY INCORP, Metabolic Activation: NONE, Method: LIQUID SCINTILLATION COUNTING): active; positive

What does the source list for `O=C1c2ccccc2CCc2ccccc21`?
mutagenic call (Test System: AMES SALMONELLA TYPHIMURIUM, Strain/Indicator: TA98, Metabolic Activation: HAMSTER, LIVER, S-9, AROCLOR 1254, Method: STANDARD PLATE): inactive; negative; mutagenic call [1]: inactive; negative; mutagenic call (Test System: AMES SALMONELLA TYPHIMURIUM, Strain/Indicator: TA98, Metabolic Activation: RAT, LIVER, S-9, AROCLOR 1254, Method: STANDARD PLATE): inactive; negative; mutagenic call (Test System: AMES SALMONELLA TYPHIMURIUM, Strain/Indicator: TA100, Metabolic Activation: HAMSTER, LIVER, S-9, AROCLOR 1254, Method: STANDARD PLATE): inactive; negative; mutagenic call [2]: inactive; negative; mutagenic call (Test System: AMES SALMONELLA TYPHIMURIUM, Strain/Indicator: TA100, Metabolic Activation: RAT, LIVER, S-9, AROCLOR 1254, Method: STANDARD PLATE): inactive; negative; mutagenic call (Test System: AMES SALMONELLA TYPHIMURIUM, Strain/Indicator: TA1535, Metabolic Activation: HAMSTER, LIVER, S-9, AROCLOR 1254, Method: STANDARD PLATE): inactive; negative; mutagenic call (Test System: AMES SALMONELLA TYPHIMURIUM, Strain/Indicator: TA1535, Metabolic Activation: NONE, Method: STANDARD PLATE): inactive; negative; mutagenic call (Test System: AMES SALMONELLA TYPHIMURIUM, Strain/Indicator: TA1535, Metabolic Activation: RAT, LIVER, S-9, AROCLOR 1254, Method: STANDARD PLATE): inactive; negative; mutagenic call (Test System: AMES SALMONELLA TYPHIMURIUM, Strain/Indicator: TA1537, Metabolic Activation: HAMSTER, LIVER, S-9, AROCLOR 1254, Method: STANDARD PLATE): inactive; negative; mutagenic call (Test System: AMES SALMONELLA TYPHIMURIUM, Strain/Indicator: TA1537, Metabolic Activation: NONE, Method: STANDARD PLATE): inactive; negative; mutagenic call (Test System: AMES SALMONELLA TYPHIMURIUM, Strain/Indicator: TA1537, Metabolic Activation: RAT, LIVER, S-9, AROCLOR 1254, Method: STANDARD PLATE): inactive; negative; mutagenic call (Test System: AMES SALMONELLA TYPHIMURIUM, Strain/Indicator: TA1538, Metabolic Activation: HAMSTER, LIVER, S-9, AROCLOR 1254, Method: STANDARD PLATE): inactive; negative; mutagenic call (Test System: AMES SALMONELLA TYPHIMURIUM, Strain/Indicator: TA1538, Metabolic Activation: NONE, Method: STANDARD PLATE): inactive; negative; mutagenic call (Test System: AMES SALMONELLA TYPHIMURIUM, Strain/Indicator: TA1538, Metabolic Activation: RAT, LIVER, S-9, AROCLOR 1254, Method: STANDARD PLATE): inactive; negative; mutagenic call (Test System: MOUSE LYMPHOMA, Strain/Indicator: L5178Y (TK+/TK-), Metabolic Activation: NONE, Method: SUSPENSION/PLATE): inactive; negative. reevaluation of results: negative; mutagenic call (Test System: MOUSE LYMPHOMA, Strain/Indicator: L5178Y (TK+/TK-), Metabolic Activation: RAT, LIVER, S-9, AROCLOR 1254, Method: SUSPENSION/PLATE): inactive; negative. reevaluation of results: negative
